Data on three molecules can be found in PMC9822050, “Antiviral Activities of Ethyl Pheophorbides a and b Isolated from Aster pseudoglehnii against Influenza Viruses” (Molecules, 2022).

The test system of series [1] is IAV. Briefly: Western blot analysis of IAV HA protein level after time-of-drug-addition treatment. The series is classed as cell-based, influenza A virus (PR8-GFP).
For another series, the system named is MDCK cells. Briefly: Cytotoxicity / MTT assay. The series is classed as cell-based, canine. The settings on record: 48 h, up to a concentration of 10 µg/mL. As for the experimental part: To clarify whether the inhibitory activities of ethyl pheophorbides a and b are mediated through cytotoxicity, MDCK cells were treated with different concentrations of each compound and cell viability was determined after 48 h via the MTT assay (Figure S7).
After a 4 h period, tetrazolium crystals were dissolved with DMSO and absorbance was measured at 560 nm.
(Formazan colour is commonly taken as a measure of viable cells.)

The test system of a further series is adenovirus. Briefly: Adenovirus plaque assay. The settings on record: virus pre-treated 1 h at room temperature, 293A cells.
Series [2] concerns IAV. Briefly: Time-of-drug-addition assay, viral RNA transcript levels via qRT-PCR. The series is classed as cell-based, influenza A virus (PR8-GFP). Background: Real-time PCR tracks product formation cycle by cycle.
The next series deals with HA2 (Influenza A virus, UniProt P03452). Nature of the series: Hemolysis inhibition assay with chicken red blood cells. To be noted: IAV treated with 1 µg/mL, cRBC 2%, pH 5.2.
HA2, sequence (P03452 344-565 limits assumed): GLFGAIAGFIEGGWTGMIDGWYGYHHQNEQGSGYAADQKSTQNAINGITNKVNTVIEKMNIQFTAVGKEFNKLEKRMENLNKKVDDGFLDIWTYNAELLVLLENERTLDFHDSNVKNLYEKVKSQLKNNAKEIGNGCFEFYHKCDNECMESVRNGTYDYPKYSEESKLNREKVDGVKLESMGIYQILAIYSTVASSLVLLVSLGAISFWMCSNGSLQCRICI
HA2, sequence (P03452 18-343 partner limits assumed): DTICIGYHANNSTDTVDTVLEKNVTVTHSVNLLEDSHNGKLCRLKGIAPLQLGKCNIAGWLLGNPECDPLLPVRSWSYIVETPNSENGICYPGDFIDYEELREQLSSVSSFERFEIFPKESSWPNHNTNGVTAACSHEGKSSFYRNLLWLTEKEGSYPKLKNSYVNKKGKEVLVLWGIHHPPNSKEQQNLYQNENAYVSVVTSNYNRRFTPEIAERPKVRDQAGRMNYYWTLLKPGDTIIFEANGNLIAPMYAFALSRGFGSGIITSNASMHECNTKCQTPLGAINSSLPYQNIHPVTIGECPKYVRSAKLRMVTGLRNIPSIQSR
The test system of another series is IBV. Briefly: Plaque reduction assay, IBV. The settings on record: Influenza B virus, MDCK, read-out: 50% inhibitory concentration (IC50) for IBV, virus pre-treated 1 h at room temperature, MDCK cells, MOI 0.001, plaque assay 48 h after infection. For orientation: In a plaque reduction assay, fewer plaques than in the control indicate reduced infectivity or spread.

The next series addresses HA1 (Influenza A virus, UniProt P03452). Briefly: Hemagglutination inhibition assay with chicken red blood cells. The settings on record: IAV treated with 1 µg/mL, cRBC 0.5%.
In a further series the target is IAV NA (Influenza A virus, UniProt P03468). It is filed as biochemical.
IAV NA, sequence (P03468 whole entry, looked up): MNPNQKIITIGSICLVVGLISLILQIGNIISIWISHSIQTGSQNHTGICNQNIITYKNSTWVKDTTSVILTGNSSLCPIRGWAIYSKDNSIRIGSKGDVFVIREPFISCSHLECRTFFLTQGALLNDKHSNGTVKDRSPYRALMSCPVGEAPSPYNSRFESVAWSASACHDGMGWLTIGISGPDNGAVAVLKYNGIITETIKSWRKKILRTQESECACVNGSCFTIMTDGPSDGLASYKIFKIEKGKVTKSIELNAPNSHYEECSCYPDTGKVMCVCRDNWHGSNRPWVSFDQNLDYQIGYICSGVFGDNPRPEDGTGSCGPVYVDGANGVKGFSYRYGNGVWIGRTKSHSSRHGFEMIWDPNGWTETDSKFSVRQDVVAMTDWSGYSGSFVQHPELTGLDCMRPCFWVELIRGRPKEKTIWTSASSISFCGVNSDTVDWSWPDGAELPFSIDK
Series [3] deals with IAV. Nature of the series: Plaque reduction assay, IAV. It is filed as cell-based, influenza A virus (PR8-GFP). The settings on record: Influenza A virus, MDCK, virus pre-treated 1 h at room temperature, MDCK cells, MOI 0.01, plaque assay 48 h after infection; read-out: 50% inhibitory concentration (IC50) for IAV. As for the experimental part:
All experiments were performed in triplicate.

SMILES strings stand for the structures. Values after ≈ are worked out from the molar mass of the structure shown.

HA1, sequence (P03452 18-343 limits assumed): as the sequence (P03452 18-343 partner limits assumed) above
HA1, sequence (P03452 344-565 partner limits assumed): as the sequence (P03452 344-565 limits assumed) above

As to `C=CC1=C(C)c2cc3[nH]c(c4c5nc(cc6[nH]c(cc1n2)c(C=O)c6CC)C(C)=C5C(=O)C4C(=O)OCC)C(CCC(=O)O)C3C` (centres unmarked) [ethyl pheophorbide b], the “expression of IAV HA protein” value in the series with IAV [1] was “significantly suppressed”. Also, in the series with MDCK cells, the “cell viability (MTT)” value was “no adverse effects on cell viability”. In addition, in the series with adenovirus, the “effect against non-enveloped adenovirus” value is recorded as “no effect”. In the series with IAV [2], the IAV transcript levels entry is “significantly reduced”. At HA2, the “hemolysis inhibition (HA2 function)” value is reported as “no effect”. Moreover, the IC50 in the series on IBV came to 3.17 ± 0.94 µg/mL (≈ 5.11 µM); in the series with IAV [3], 0.094 ± 0.058 µg/mL (≈ 0.151 µM). Also, at HA1, the “hemagglutination inhibition (HA1 function)” value is recorded as “no effect”. Besides, on IAV NA, the “effect on IAV NA activity” value is “no effects”.

Take `NC12CC3CC(CC(C3)C1)C2` [Amantadine, reference compound]: in the series with IAV [1] (treatment during adsorption, 1 mM, western blot), the “IAV HA protein level” value is on record as “marked downregulation”. The “IAV replication (viral RNA transcript level)” value in the series on IAV [2] (treatment during virus adsorption to host cells, 1 mM) is “marked decrease”.

As to `C=CC1=C(C)c2cc3[nH]c(c4c5nc(cc6[nH]c(cc1n2)c(C)c6CC)C(C)=C5C(=O)C4C(=O)OC)C(CCC(=O)OCC)C3C` (centres unmarked) [ethyl pheophorbide a], in the series with IAV [1], the “expression of IAV HA protein” value was “significantly suppressed”. In the series on MDCK cells, the “cell viability (MTT)” value was “no adverse effects on cell viability”. For the same molecule, the “effect against non-enveloped adenovirus” value with adenovirus is recorded as “no effect”. The IAV transcript levels entry in the series on IAV [2] is reported as “significantly reduced”. Besides, at HA2, the “hemolysis inhibition (HA2 function)” value was “no effect”. Moreover, the figures for the IC50 in the series with IBV and in the series with IAV [3] were 1.62 ± 0.86 µg/mL (≈ 2.61 µM) and 0.086 ± 0.072 µg/mL (≈ 0.139 µM), respectively. Also, at HA1, the “hemagglutination inhibition (HA1 function)” value is reported as “no effect”. At IAV NA, the “effect on IAV NA activity” value is “no effects”.
